Data from patent US6858591B2, “Antibiotic AA 896 analogs” (Wyeth Holdings Corporation, priority 2001, dated 2005).
Read-outs that look alike come from different tables or passages of the source.

Tests used:
Test in all cases: In vitro MIC, broth dilution
Format in all cases: cell-based
E. coli GC 4559 = details: Escherichia coli, GC4559
E. coli GC 4560 = details: Escherichia coli, GC4560
P. aeruginosa GC 2214 = details: Pseudomonas aeruginosa, GC2214
E. cloacae GC 3783 = details: Enterobacter cloacae, GC3783
C. albicans GC 3066 = details: Candida albicans, GC3066
S. aureus GC 2216 = details: Staphylococcus aureus, GC2216
Outline: (§1)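 Susceptibility testing used the NCCLS broth dilution method. Antibiotic spanned 64-0.06 μg/ml against an inoculum of 5×10^5 CFU/ml in Mueller-Hinton II; after 18 hours at 35° C the lowest concentration without growth gave the MIC.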

S. aureus GC 1131 = details: Staphylococcus aureus, GC1131
Outline: as §1

E. faecalis GC 4555 = details: Enterococcus faecalis, GC4555
Outline: as §1

E. faecalis GC 842 = details: Enterococcus faecalis, GC842
Outline: as §1

CNS GC 4537 = test system: CNS GC 4537
Outline: as §1

S. aureus GC 4536 = details: Staphylococcus aureus, GC4536
Outline: as §1

CNS GC 4547 = test system: CNS GC 4547
Outline: as §1

E. faecalis GC 2242 = details: Enterococcus faecalis, GC2242
Outline: as §1

CNS GC 4538 = test system: CNS GC 4538
Outline: as §1

K. pneumoniae GC 4534 = details: Klebsiella pneumoniae, GC4534
E. coli GC 3226 = details: Escherichia coli, GC3226
M. morganii GC 4531 = details: Morganella morganii, GC4531
P. aeruginosa GC 4532 = details: Pseudomonas aeruginosa, GC4532
S. marcescens GC 4077 = details: Serratia marcescens, GC4077
E. coli GC 2203 = details: Escherichia coli, GC2203
[1] = P. aeruginosa GC 2214, read-out: MIC
[2] = E. cloacae GC 3783, read-out: MIC
[3] = C. albicans GC 3066, read-out: MIC
[4] = S. aureus GC 2216, read-out: MIC
[5] = S. aureus GC 1131, read-out: MIC
[6] = E. faecalis GC 4555, read-out: MIC
[7] = E. faecalis GC 842, read-out: MIC
[8] = S. aureus GC 4536, read-out: MIC
[9] = E. faecalis GC 2242, read-out: MIC
[10] = K. pneumoniae GC 4534, read-out: MIC
[11] = M. morganii GC 4531, read-out: MIC
[12] = P. aeruginosa GC 4532, read-out: MIC
[13] = S. marcescens GC 4077, read-out: MIC

Measured: MIC

COc1ccc(Cn2c(=O)ccn([C@@H]3OC([C@H](O)[C@H](NCCCNC(=O)[C@@H](N)CCCCN)C(=O)OC(C)(C)C)[C@@H](O[Si](C)(C)C(C)(C)C)[C@H]3O[Si](C)(C)C(C)(C)C)c2=O)cc1 (stereo partly drawn) [Example 19, tert-Butyl (2S,3R)-3-[(3R,4R,5R)-3,4-bis{[tert-butyl(dimethyl)silyl]oxy}-5-(3-(4-methoxybenzyl)-2,4-dioxo-3,4-dihydro-1(2H)-pyrimidinyl)tetrahydro-2-furanyl]-2-[(3-{[(2S)-2,6-diaminohexanoyl]amino}propyl)amino]-3-hydroxypropanoate]
> 128 µg/mL: E. coli GC 4559; E. coli GC 4559, read-out: MIC | E. cloacae GC 3783; [2] | C. albicans GC 3066; [3] | K. pneumoniae GC 4534; [10]
8 µg/mL: E. coli GC 4560; E. coli GC 4560, read-out: MIC | S. aureus GC 2216; [4] | E. faecalis GC 4555; [6] | E. faecalis GC 842; [7] | CNS GC 4537; CNS GC 4537, read-out: MIC | S. aureus GC 4536; [8] | E. faecalis GC 2242; [9] | CNS GC 4538; CNS GC 4538, read-out: MIC
16 µg/mL: CNS GC 4547; CNS GC 4547, read-out: MIC
4 µg/mL: S. aureus GC 1131; [5]
128 µg/mL: P. aeruginosa GC 2214; [1] | E. coli GC 3226; E. coli GC 3226, read-out: MIC | M. morganii GC 4531; [11] | P. aeruginosa GC 4532; [12] | S. marcescens GC 4077; [13] | E. coli GC 2203; E. coli GC 2203, read-out: MIC

COc1ccc(Cn2c(=O)ccn([C@@H]3OC([C@H](O)[C@H](NCCCNC(=O)[C@H](CCC(=O)OC(C)(C)C)NC(=O)OCc4ccccc4)C(=O)OC(C)(C)C)[C@@H](O[Si](C)(C)C(C)(C)C)[C@H]3O[Si](C)(C)C(C)(C)C)c2=O)cc1 (stereo partly drawn) [Example 20, tert-Butyl (5S,12S)-12-[(R)-[(3R,4R,5R)-3,4-bis{[tert-butyl(dimethyl)silyl]oxy}-5-(3-(4-methoxybenzyl)-2,4-dioxo-3,4-dihydro-1(2H)-pyrimidinyl)tetrahydro-2-furanyl](hydroxy)methyl]-5-[3-(tert-butoxy)-3-oxopropyl]-3,6-dioxo-1-phenyl-2-oxa-4,7,11-triazatridecan-13-oate]
128 µg/mL: P. aeruginosa GC 2214 | C. albicans GC 3066 | P. aeruginosa GC 4532
> 128 µg/mL: E. coli GC 4559 | E. coli GC 4560 | E. cloacae GC 3783 | S. aureus GC 2216 | S. aureus GC 1131 | E. faecalis GC 4555 | E. faecalis GC 842 | CNS GC 4537 | S. aureus GC 4536 | CNS GC 4547 | E. faecalis GC 2242 | CNS GC 4538 | K. pneumoniae GC 4534 | E. coli GC 3226 | M. morganii GC 4531 | S. marcescens GC 4077 | E. coli GC 2203

COc1ccc(Cn2c(=O)ccn([C@@H]3OC([C@H](O)[C@H](NCCCNC(=O)[C@@H](N)CCC(=O)OC(C)(C)C)C(=O)OC(C)(C)C)[C@@H](O[Si](C)(C)C(C)(C)C)[C@H]3O[Si](C)(C)C(C)(C)C)c2=O)cc1 (stereo partly drawn) [Example 21, tert-Butyl (4S)-4-amino-5-[(3-{[(1S,2R)-2-[(3R,4R,5R)-3,4-bis{[tert-butyl(dimethyl)silyl]oxy}-5-(3-(4-methoxybenzyl)-2,4-dioxo-3,4-dihydro-1(2H)-pyrimidinyl)tetrahydro-2-furanyl]-1-(tert-butoxycarbonyl)-2-hydroxyethyl]amino}propyl)amino]-5-oxopentanoate]
> 128 µg/mL: E. coli GC 4559; E. coli GC 4559, read-out: MIC | E. coli GC 4560; E. coli GC 4560, read-out: MIC | P. aeruginosa GC 2214; [1] | E. cloacae GC 3783; [2] | C. albicans GC 3066; [3] | S. aureus GC 2216; [4] | S. aureus GC 1131; [5] | E. faecalis GC 4555; [6] | E. faecalis GC 842; [7] | CNS GC 4537; CNS GC 4537, read-out: MIC | S. aureus GC 4536; [8] | CNS GC 4547; CNS GC 4547, read-out: MIC | E. faecalis GC 2242; [9] | CNS GC 4538; CNS GC 4538, read-out: MIC | K. pneumoniae GC 4534; [10] | E. coli GC 3226; E. coli GC 3226, read-out: MIC | M. morganii GC 4531; [11] | P. aeruginosa GC 4532; [12] | S. marcescens GC 4077; [13] | E. coli GC 2203; E. coli GC 2203, read-out: MIC

COc1ccc(Cn2c(=O)ccn([C@@H]3OC([C@H](O)[C@H](NC(=O)CCCCCCCCCCNC(=O)OCC4c5ccccc5-c5ccccc54)C(=O)OC(C)(C)C)[C@@H](O[Si](C)(C)C(C)(C)C)[C@H]3O[Si](C)(C)C(C)(C)C)c2=O)cc1 (stereo partly drawn) [Example 22, tert-Butyl (2S,3R)-3-[(3R,4R,5R)-3,4-bis{[tert-butyl(dimethyl)silyl]oxy}-5-(3-(4-methoxybenzyl)-2,4-dioxo-3,4-dihydro-1(2H)-pyrimidinyl)tetrahydro-2-furanyl]-2-[(11-{[(9H-fluoren-9-ylmethoxy)carbonyl]amino}undecanoyl)-amino]-3-hydroxypropanoate]
> 128 µg/mL: E. coli GC 4559 | E. coli GC 4560 | P. aeruginosa GC 2214 | E. cloacae GC 3783 | C. albicans GC 3066 | S. aureus GC 2216 | S. aureus GC 1131 | E. faecalis GC 4555 | E. faecalis GC 842 | CNS GC 4537 | S. aureus GC 4536 | CNS GC 4547 | E. faecalis GC 2242 | CNS GC 4538 | K. pneumoniae GC 4534 | E. coli GC 3226 | M. morganii GC 4531 | P. aeruginosa GC 4532 | S. marcescens GC 4077 | E. coli GC 2203

COc1ccc(Cn2c(=O)ccn([C@@H]3OC([C@H](O)[C@H](NC(=O)CCCCCCCCCCN)C(=O)OC(C)(C)C)[C@@H](O[Si](C)(C)C(C)(C)C)[C@H]3O[Si](C)(C)C(C)(C)C)c2=O)cc1 (stereo partly drawn) [Example 23, tert-Butyl (2S,3R)-2-[(11-aminoundecanoyl)amino]-3-[(3R,4R,5R)-3,4-bis{[tert-butyl(dimethyl)silyl]oxy}-5-(3-(4-methoxybenzyl)-2,4-dioxo-3,4-dihydro-1(2H)-pyrimidinyl)tetrahydro-2-furanyl]-3-hydroxypropanoate]
128 µg/mL: E. coli GC 4560; E. coli GC 4560, read-out: MIC | P. aeruginosa GC 2214; [1] | C. albicans GC 3066; [3] | S. aureus GC 2216; [4] | E. faecalis GC 4555; [6] | E. faecalis GC 842; [7] | CNS GC 4537; CNS GC 4537, read-out: MIC | S. aureus GC 4536; [8] | E. faecalis GC 2242; [9] | CNS GC 4538; CNS GC 4538, read-out: MIC | M. morganii GC 4531; [11] | P. aeruginosa GC 4532; [12] | S. marcescens GC 4077; [13]
> 128 µg/mL: E. coli GC 4559; E. coli GC 4559, read-out: MIC | E. cloacae GC 3783; [2] | S. aureus GC 1131; [5] | CNS GC 4547; CNS GC 4547, read-out: MIC | K. pneumoniae GC 4534; [10] | E. coli GC 3226; E. coli GC 3226, read-out: MIC | E. coli GC 2203; E. coli GC 2203, read-out: MIC
